From patent US8268836B2, “Compound useful as a c-Met inhibitor” (Eli Lilly and Company, priority 2010, dated 2012)
Where a name gives a salt, the structure may show the parent alone.

What was measured:
cMet enzyme = cMet enzyme (Homo sapiens, UniProt P08581); experiment: cMet Homogeneous Time Resolved Fluorescence (HTRF) in vitro assay; format: biochemical; conditions: relative IC50; read-out: c-Met IC50 (HTRF)
From the text: This assay is based on HTRF technology and it is used to detect the phosphorylation of biotin labeled tyrosine peptide by cMet enzyme. After the reaction is completed, XL665 labeled streptavidin is used to recognize the biotin unit and a Europium (Eu3+) labeled anti-phospho-tyrosine antibody is used to recognize the phosphorylated tyrosine. The detection process relies on the transfer of energy between the excited Eu3+ and the XL665 labeled streptavidin. The aim of this protocol is to calculate the ability of test compounds to inhibit the phosphorylation of the product of this reaction and calculate their relative IC50 values.
A reference compound, if desired, may be prepared as a 1 mM stock solution in 100% DMSO and test compounds are prepared as 10 mM stock solutions in 100% DMSO. 1 mM reference compound and 10 mM test compounds are pre-diluted to 8 μM and 80 μM 10% DMSO solutions in a 96-well dilution plate. Compounds are serially diluted (1:3) using Tecan Freedom EVO 200 and 10-point dilution curves are generated for each of the compounds tested. 10 μL of serially diluted compounds are transferred to a 96-well assay plate using Temo (Tecan). […] The assay plate is incubated at RT for 60 min before reading the fluorescence signals at 620 nm emission and 665 nm […] in a Victor3 instrument (PerkinElmer Corporation). […]

[1] = target: T1, Met (pY1349) in NCl-H460 cells (Homo sapiens, UniProt P08581); experiment: HGF stimulated Met (pY1349) NCI-H460 cell-based ELISA; conditions: HGF 100 ng/mL stimulated NCI-H460 cells; read-out: relative IC50, H460 assay (c-Met phosphorylation)
T1 construct: host or cells: NCI-H460
T1 sequence (P08581 25-1390): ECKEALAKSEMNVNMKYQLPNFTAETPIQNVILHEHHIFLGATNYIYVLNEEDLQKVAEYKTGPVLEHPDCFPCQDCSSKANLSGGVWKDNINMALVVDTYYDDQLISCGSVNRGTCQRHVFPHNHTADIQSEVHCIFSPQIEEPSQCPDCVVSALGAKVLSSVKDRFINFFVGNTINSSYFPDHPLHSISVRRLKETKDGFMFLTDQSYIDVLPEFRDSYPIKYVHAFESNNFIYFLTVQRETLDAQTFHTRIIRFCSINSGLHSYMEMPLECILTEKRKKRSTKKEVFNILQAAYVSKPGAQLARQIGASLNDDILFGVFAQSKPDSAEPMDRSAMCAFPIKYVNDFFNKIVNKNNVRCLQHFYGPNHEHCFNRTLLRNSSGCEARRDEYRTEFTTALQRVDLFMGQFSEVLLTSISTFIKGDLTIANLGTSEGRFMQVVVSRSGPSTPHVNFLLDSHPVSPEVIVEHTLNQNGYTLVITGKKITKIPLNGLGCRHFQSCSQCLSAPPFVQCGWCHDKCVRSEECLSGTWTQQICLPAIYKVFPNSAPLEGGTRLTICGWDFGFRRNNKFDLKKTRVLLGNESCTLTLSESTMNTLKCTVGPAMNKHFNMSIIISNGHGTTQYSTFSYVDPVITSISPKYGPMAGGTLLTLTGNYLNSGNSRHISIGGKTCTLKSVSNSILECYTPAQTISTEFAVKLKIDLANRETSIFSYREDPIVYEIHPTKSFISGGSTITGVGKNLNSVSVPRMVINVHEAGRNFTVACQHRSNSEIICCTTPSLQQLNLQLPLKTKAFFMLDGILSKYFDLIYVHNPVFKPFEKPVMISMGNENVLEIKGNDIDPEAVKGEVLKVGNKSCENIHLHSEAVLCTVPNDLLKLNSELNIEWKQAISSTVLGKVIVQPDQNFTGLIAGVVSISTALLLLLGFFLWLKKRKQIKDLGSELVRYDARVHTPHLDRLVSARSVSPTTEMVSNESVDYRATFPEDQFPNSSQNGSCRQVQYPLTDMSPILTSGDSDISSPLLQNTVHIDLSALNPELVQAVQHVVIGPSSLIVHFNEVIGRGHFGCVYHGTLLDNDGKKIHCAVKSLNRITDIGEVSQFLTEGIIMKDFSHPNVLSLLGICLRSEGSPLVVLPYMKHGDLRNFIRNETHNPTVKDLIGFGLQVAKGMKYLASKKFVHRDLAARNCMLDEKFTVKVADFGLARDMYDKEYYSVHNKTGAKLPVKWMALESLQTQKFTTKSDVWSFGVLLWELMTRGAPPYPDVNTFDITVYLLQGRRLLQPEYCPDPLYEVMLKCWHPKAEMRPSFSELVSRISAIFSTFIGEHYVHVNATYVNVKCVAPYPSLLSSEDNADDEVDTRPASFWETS
Protocol: NCl—H460 cells (purchased from ATCC) are cultured in RPMI 1640 media (Invitrogen) supplemented with 10% Fetal Bovine Serum (FBS) and plated (prior to becoming 70% confluent) in 96-well flat-bottom plates at a density of 20,000 cells per well in 80 μL volume. The cells are then incubated overnight in a cell culture incubator (5% CO2, 95% Relative Humidity (RH) and 37° C.) and allowed to attach to the plate. The following morning the cells are washed with 2 volumes of a Reduced Serum Media (RSM, RPMI 1640 media supplemented with 0.5% FBS). After removal of the last wash, 80 μL of RSM is added to each well of the cell plates. The cell plates are incubated for 2.5 h in a cell culture incubator, and then dosed with compounds. Compound inhibitors are first solubilized at 10 mM in 100% DMSO and then diluted to 100 μM with 2% DMSO RSM. […] After 1 h capture (at RT) the MSD® plate wells are washed with 1× Tris Wash Buffer, and then 150 μL of 1× Read Buffer T (with surfactant, MSD®) is added. Immediately after the addition of the Read Buffer, the plates are analyzed with a SECTOR 6000 MSD® Imager plate reader. Relative IC50 values are determined using MSD activity units by calculating percent inhibition with respect to on-plate “MIN” and “MAX” controls and then fitting the percent inhibition values and ten-point dose response data to a four-parameter logistic equation.

Chain of cMet enzyme (P08581 25-1390): as above

Cn1cc(-c2ccc3nnc(Sc4ccc5nn(C)cc5c4)n3n2)cn1 [mesylate salt form of example 1]
IC50 (cMet enzyme): 25 nM | IC50 [1]: 38 nM
